{"source": "patent US7041698B2", "about": "“Hepatitis C virus inhibitors” (Bristol-Myers Squibb Company, priority 2002, dated 2006)", "key": {"NS3/4A H77C strain": {"target": "T1, NS3/4A H77C strain (Hepatitis C virus genotype 1a, UniProt P27958, C1454S)", "T1 construct": "DNA encoding the recombinant HCV NS3/4A protease complex (amino acids 1027 to 1711) for these strains; His tag (inferred from pET21b vector and Ni-NTA purification); made in house; host or cells: Escherichia coli BL21 (DE3)", "T1 sequence (P27958 1027-1657 C1454S)": "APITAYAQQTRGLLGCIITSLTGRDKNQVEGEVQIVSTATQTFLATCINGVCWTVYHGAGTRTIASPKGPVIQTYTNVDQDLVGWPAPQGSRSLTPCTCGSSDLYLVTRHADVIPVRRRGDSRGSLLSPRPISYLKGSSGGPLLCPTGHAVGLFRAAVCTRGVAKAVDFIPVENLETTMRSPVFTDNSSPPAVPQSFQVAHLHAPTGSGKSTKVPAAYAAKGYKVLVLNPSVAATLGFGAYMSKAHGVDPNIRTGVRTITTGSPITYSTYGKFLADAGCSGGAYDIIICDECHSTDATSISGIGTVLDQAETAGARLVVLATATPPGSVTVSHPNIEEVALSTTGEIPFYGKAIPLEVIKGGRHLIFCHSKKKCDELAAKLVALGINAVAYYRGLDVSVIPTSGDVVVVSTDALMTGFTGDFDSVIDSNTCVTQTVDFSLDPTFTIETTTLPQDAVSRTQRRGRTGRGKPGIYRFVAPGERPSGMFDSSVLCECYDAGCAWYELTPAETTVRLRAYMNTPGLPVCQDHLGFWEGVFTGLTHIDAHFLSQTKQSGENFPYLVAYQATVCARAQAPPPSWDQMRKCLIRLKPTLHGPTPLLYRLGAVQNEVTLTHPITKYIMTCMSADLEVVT", "T1 sequence (P27958 1658-1714 partner, looked up, stated change not applied)": "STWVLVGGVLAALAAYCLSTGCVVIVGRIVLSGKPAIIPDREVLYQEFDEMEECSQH", "test": "Recombinant HCV NS3/4A protease complex FRET peptide assay, H77C strain", "assay_type": "biochemical, HCV genotype 1a", "text": "(§1) Recombinant HCV NS3/4A Protease Complex FRET Peptide Assay\n(§2) The purpose of this in vitro assay was to measure the inhibition of HCV NS3 protease complexes, derived from the BMS, H77C or J416S strains, as described below, by compounds of the present invention. This assay provides an indication of how effective compounds of the present invention would be in inhibiting HCV proteolytic activity.\n(§3) Serum from an HCV-infected patient was obtained from Dr. T. Wright, San Francisco Hospital. An engineered full-length cDNA (compliment deoxyribonucleic acid) template of the HCV genome (BMS strain) was constructed from DNA fragments obtained by reverse transcription-PCR (RT-PCR) of serum RNA (ribonucleic acid) and using primers selected on the basis of homology between other genotype 1a strains. From the determination of the entire genome sequence, a genotype 1a was assigned to the HCV isolate according to the classification of Simmonds et al. (See P Simmonds, K A Rose, S Graham, S W Chan, F McOmish, B C Dow, E A Follett, P L Yap and H Marsden, J. Clin. Microbiol., 31(6), 1493–1503 (1993)). […]"}, "NS3/4A J4L6S strain": {"target": "T2, NS3/4A J4L6S strain (Hepatitis C virus genotype 1b, UniProt O92972, C1454S/C1711G)", "T2 construct": "DNA encoding the recombinant HCV NS3/4A protease complex (amino acids 1027 to 1711) for these strains; His tag (inferred from pET21b vector and Ni-NTA purification); made in house; host or cells: Escherichia coli BL21 (DE3)", "T2 sequence (O92972 1027-1711 C1454S/C1711G)": "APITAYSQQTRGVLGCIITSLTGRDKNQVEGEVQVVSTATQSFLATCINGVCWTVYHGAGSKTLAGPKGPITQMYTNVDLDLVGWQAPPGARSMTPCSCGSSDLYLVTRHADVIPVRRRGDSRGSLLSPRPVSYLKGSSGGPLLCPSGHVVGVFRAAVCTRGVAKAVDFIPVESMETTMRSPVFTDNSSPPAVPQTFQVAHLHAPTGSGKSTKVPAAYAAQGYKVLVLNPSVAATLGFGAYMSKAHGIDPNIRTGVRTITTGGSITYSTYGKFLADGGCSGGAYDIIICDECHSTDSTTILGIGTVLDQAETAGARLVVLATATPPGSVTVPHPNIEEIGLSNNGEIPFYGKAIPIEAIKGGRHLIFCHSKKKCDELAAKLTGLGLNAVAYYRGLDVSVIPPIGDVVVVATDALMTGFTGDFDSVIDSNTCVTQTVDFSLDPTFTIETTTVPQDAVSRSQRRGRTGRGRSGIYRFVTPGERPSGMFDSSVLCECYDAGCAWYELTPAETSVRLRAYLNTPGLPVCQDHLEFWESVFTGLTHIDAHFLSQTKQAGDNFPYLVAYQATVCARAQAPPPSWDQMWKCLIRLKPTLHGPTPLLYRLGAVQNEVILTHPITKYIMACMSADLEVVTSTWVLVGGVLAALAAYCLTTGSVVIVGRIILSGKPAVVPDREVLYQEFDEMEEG", "test": "Recombinant HCV NS3/4A protease complex FRET peptide assay, J4L6S strain", "assay_type": "biochemical, HCV genotype 1b", "text": "as §1, §2, §3"}, "[1]": {"target": "T3, porcine pancreatic elastase (PPE) (Sus scrofa, UniProt P00772)", "T3 construct": "purchased Sigma", "T3 sequence (P00772 27-266)": "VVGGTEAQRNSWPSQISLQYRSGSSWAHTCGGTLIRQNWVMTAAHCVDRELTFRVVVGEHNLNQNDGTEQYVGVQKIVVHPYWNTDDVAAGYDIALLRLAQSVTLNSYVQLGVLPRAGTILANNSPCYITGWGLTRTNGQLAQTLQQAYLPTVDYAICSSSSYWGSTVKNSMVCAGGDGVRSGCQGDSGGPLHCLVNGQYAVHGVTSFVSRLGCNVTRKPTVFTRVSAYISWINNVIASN", "test": "Specificity assay, porcine pancreatic elastase", "assay_type": "biochemical", "settings": "2 hr pre-incubation at RT", "procedure": "(§4) The specificities of compounds of the present invention were determined against a variety of serine proteases: human sputum elastase (HS), porcine pancreatic elastase (PPE) and human pancreatic chymotrypsin and one cysteine protease: human liver cathepsin B. In all cases a 96-well plate format protocol using calorimetric p-nitroaniline (pNA) substrate specific for each enzyme was used as described previously (Patent WO 00/09543) with some modifications to the serine protease assays. All enzymes were purchased from Sigma while the substrates were from Bachem.\n(§5) Each assay included a 2 hr enzyme-inhibitor pre-incubation at RT followed by addition of substrate and hydrolysis to ˜30% conversion as measured on a Spectramax Pro microplate reader. Compound concentrations varied from 100 to 0.4 μM depending on their potency. […]\n(§6) The percentage of inhibition was calculated using the formula: [1-((UVinh−UVblank)/(UVctl−UVblank))]×100 […]"}, "[2]": {"tested_on": "T4, human pancreatic chymotrypsin", "T4 construct": "human pancreatic chymotrypsin", "test": "Specificity assay, chymotrypsin", "assay_type": "biochemical", "settings": "2 hr pre-incubation at RT", "procedure": "as §4, §5, §6"}}, "data": [{"smiles": "C=CC1C[C@]1(NC(=O)[C@@H]1C[C@@H](OC(=O)Nc2ccccc2-c2ccccc2)CN1C(=O)[C@@H](NC(=O)OC(C)(C)C)C(C)(C)C)C(=O)NS(=O)(=O)C1CC1", "note": "(stereo partly drawn) [Compound 8, BocNH-P3(t-BuGly)-P2(Hyp(O—CO(NH-biphen-2-yl)))-P1(1R,2S VinylAcca)—CONHSO2Cyclopropane]", "values": [{"measurement": "IC50", "setting": "NS3/4A H77C strain", "value": 11, "unit": "nM"}, {"measurement": "IC50", "setting": "NS3/4A J4L6S strain", "value": 9.5, "unit": "nM"}, {"measurement": "IC50", "setting": "[1]", "value": "> 100000", "unit": "nM"}, {"measurement": "IC50", "setting": "[2]", "value": "> 100000", "unit": "nM"}]}]}
